Source: patent US20190350930A1, “COMPOSITION FOR CONTROLLING GASTROESOPHAGEAL REFLUX DISEASES” (bitop AG, priority 2016, published 2019)

Tested on: mucus-forming epithelial cells TR146
Assay: in vitro cell culture model: TR146 cells damaged with acidic HCl/pepsin solution, then incubated with ectoine; cell count by neutral red cytotoxicity assay
Type: cell-based
Settings: FIG. 1
Protocol: The cells were treated with acid solutions containing the digestive enzyme pepsin and following this treated with ectoine. TR146 cells were added to a microplate having 96 wells, with the cells being allowed to grow until the surface was almost completely covered. The cells were then treated for 10 min. with a diluted acidic HCl solution together with pepsin in a cell culture medium. The concentration of pepsin was 2 U/ml. Following this, the cells were washed with PBS (phosphate buffered saline) and incubated overnight either with ectoine or for control purposes with pure solvent. After incubation, a cell count determination was carried out using a […] for which a cyanine-based nucleic acid dye was employed. The assay is based on the fact that the plasma membrane of damaged or dead cells becomes permeable to the dye and the dye binds to the DNA of the cell, which is associated with a corresponding increase in fluorescence. For […] control, cells were treated with 0.1% sodium dodecyl sulfate (SDS) solution as denaturing agent. Other cells (full medium) were not treated with acid/pepsin.

## CC1=NCC[C@@H](C(=O)O)N1 (stereo in doubt) [ectoine, 2-methyl-1,4,5,6-tetrahydropyrimidine-4-carboxylic acid]
50 mM ectoine, overnight incubation after 10 min acidic HCl solution with pepsin 2 U/ml
  effect with respect to the regeneration of the cells: excellent effect
Cells treated with ectoine (50 mM) after acid/pepsin, compared with full-medium cells not treated with acid/pepsin
  cell viability: comparable to that of cells that were not subjected to a treatment with an acidic pepsin solution
